Measured values published in EP2265599B1, “CRYSTAL FORM OF PHENYLAMINOPYRIMIDINE DERIVATIVE” (Natco Pharma Limited, priority 2008, dated 2009).

Tests used:
Baf3T315I = assay: In vivo anti-leukemic activity, blast cell count in blood smears, Baf3T315I implanted nude mice; settings: Imatinib 10mg/kg, AN019 20mg/kg, AN024 20mg/kg, oral gavage or ip from day 15; up to day 42
Text: (§1) Blood smears were obtained via the tail vein or via the femoral vein every 6th day and blast cells counted and graphically represented.
(§2) Abdominal swelling and decrease in activity was monitored daily, blood smear taken via the tail vein or the femoral vein every 6th day and H&E stained as per standard protocols. 42 days after implantation, mice were sacrificed and spleens harvested.
(§3) Nude mice were intraperitoneally implanted with Baf3 mutant cells (wt, T315I, M351T or E255K). […] Blood was drawn from the femoral vein or tail vein every 6th day and blast cell count determined and graphically represented.

Baf3M351T = assay: In vivo anti-leukemic activity, blast cell count in blood smears, Baf3M351T implanted nude mice; settings: Imatinib 10mg/kg, AN019 20mg/kg, AN024 20mg/kg, oral gavage or ip from day 15; up to day 42
Text: as §1, §2, §3

Baf3E255K = assay: In vivo anti-leukemic activity, blast cell count in blood smears, Baf3E255K implanted nude mice; settings: Imatinib 10mg/kg, AN019 20mg/kg, AN024 20mg/kg, oral gavage or ip from day 15; up to day 42
Text: as §1, §2, §3

[1] = tested on: K562 luc human leukemia cells; assay: Drug effectiveness (De) from in vivo luciferase studies; design: species or system nude mice
Text: [formula] Where: • Σalive = total number of mice alive per concentration at the end of experiment times photon count, Eluc = total number of mice alive showing luciferase expression per concentration at end of experiment and c represents control untreated animals times photon count and ∑c-initial represents the initial number of animals in control at start of experiment times photon count.

K5621uc cells = assay: Drug temporal penetrance (Tp) after stopping drug treatment; assay type: in vivo, nude mice; settings: AN019 20mg/kg, AN024 20mg/kg, Imatinib 10mg/kg, daily ip from day 15, stopped on day 35, imaged till day 45
Description: The temporal penetrance was calculated applying the following equation, Tp=. (((P)/(n))a -((P)/(n))ter)/(((P)/(n))a -((P)/(n))b) [formula]
Where: • P=photon counts at day 'a', day 'ter', or day 'b' where 'a' is the day when drug treatment was stopped and 'ter' is the day when the experiment was terminated and 'b' is the day where P is minimum after day a but before day 'ter'. • n=number of animals alive when P was measured.
The animals were imaged at 6 day intervals post transplantation. […] Drug treatment was stopped on day 35 and animals were imaged till day 45, and calculated as described in methods.

ZR-71 = assay: Matrigel invasion assay (modified Boyden chamber), ZR-71; assay type: cell-based; settings: cells treated 48 h
Description: (§4) The in vitro invasiveness of 4910, 5310 and U87 glioma cells and MDAMB231 and ZR71 breast cancer cells in the presence of specified concentrations of compounds were assessed using a modified Boyden chamber assay. Cells were treated with these compounds for 48 h. 1x10^6 cells were suspended in 600µl of serum-free medium supplemented with 0.2% BSA and placed in the upper compartment of the transwell chambers (Coming Costar Fischer Scientific Cat #07-200-158, Pittsburgh PA) coated with Matrigel (0.7 mg/ml). The lower compartment of the chamber was filled with 200 µl of serum medium and the cells were allowed to migrate for 24 h. After incubation, the cells were fixed and stained with Hema-3 and quantified as previously described (Mohanam et al. 1993). The migrated cells were imaged microscopically to determine the reduction in invasiveness induced by the compounds of this invention.
(§5) The in vitro invasiveness of 4910, 5310 and U87 glioma cells and MDAMB231 and ZR71 breast cancer cells in the presence of specified concentrations of compounds were assessed using a modified Boyden chamber assay. Cells were treated with these compounds for 48 h.

MDA-MB-231 = assay: Matrigel invasion assay (modified Boyden chamber), MDA-MB-231; assay type: cell-based; settings: cells treated 48 h
Description: as §4, §5

4910 = assay: Matrigel invasion assay (modified Boyden chamber), 4910; assay type: cell-based, human; settings: cells treated 48 h
Description: as §4, §5

5310 = assay: Matrigel invasion assay (modified Boyden chamber), 5310; assay type: cell-based; settings: cells treated 48 h
Description: as §4, §5

U87 = assay: Matrigel invasion assay (modified Boyden chamber), U87; assay type: cell-based; settings: cells treated 48 h
Description: as §4, §5

ZR-71 cells = assay: In vitro angiogenic assay (conditioned media on human dermal endothelial cells), ZR-71; assay type: cell-based
Description: (§6) The in vitro angiogenesis of 4910, 5310 and U87 glioma cells and MDAMB231 and ZR71 breast cancer cells in the presence of specified concentrations of compounds were determined as follows, cells (2x10^4/well) were seeded in 8-well chamber slides and were treated with various concentrations of test compounds. After a 24 h incubation period, the conditioned media was removed and added to a 4x 10^4 human dermal endothelial cell (monolayer in 8-well chamber slides) and the human dermal endothelial cells were allowed to grow for 72 h. Cells were then fixed in 3.7% formaldehyde and stained with H&E and photographed.

MDA-MB-231 cells = assay: In vitro angiogenic assay (conditioned media on human dermal endothelial cells), MDA-MB-231; assay type: cell-based; settings: control condition and after radiation
Description: as §6

[2] = tested on: Glioma xenograft cells 4910; assay: In vitro angiogenic assay (conditioned media on human dermal endothelial cells), 4910; assay type: cell-based; settings: 4910 cells, with and without radiation
Description: as §6

5310 cells = assay: In vitro angiogenic assay (conditioned media on human dermal endothelial cells), 5310; assay type: cell-based; settings: control conditions and after radiation
Description: as §6

U87 glioma cells = assay: In vitro angiogenic assay (conditioned media on human dermal endothelial cells), U87; assay type: cell-based; settings: with and without radiation
Description: as §6

U87 cells = assay: Western blot analysis for AKT, ERK and Pi3k, U87; assay type: cell-based; settings: decrease was enhanced after radiation
Description: (§7) Western blot analysis of 4910, 5310 and U87 glioma cells and MDAMB231 and ZR71 breast cancer cells in the presence of specified concentrations of compounds were assessed as per standard protocols. Cells were treated with AN019, AN024 or Temozolomide at the specified concentrations. 24h after treatment, cells were collected and cell lysates extracted. Equal quantities of proteins were fractionated by SDS-PAGE. The fractionated proteins were blotted on to nylon membranes and immunoprobed for AKT, ERK and Pi3k. Breast cancer cell protein isolates were additionally immunoprobed for EGFR, ErbB1, ErbB2 and ErbB3.

4910 cells = assay: Western blot analysis for AKT, ERK and Pi3k, 4910; assay type: cell-based, human; settings: decrease enhanced after radiation
Description: as §7

ZR71 = assay: Western blot analysis for AKT, ERK and Pi3k, ZR71; assay type: cell-based
Description: as §7

[3] = tested on: 4910, 5310 and U87 glioma cells and MDAMB231 and ZR71 breast cancer cells; assay: Western blot analysis for pAKT and pERK (cell line not specified); assay type: cell-based; settings: with and without radiation
Description: as §7

[4] = tested on: K562 luciferase expressing cells; assay: Leukemic survival study, K562 luciferase expressing cells implanted intraperitoneally; assay type: in vivo, nude mice
[5] = tested on: 4910 human glioma xenograft cells; assay: Glioma radiation study, intracranially implanted 4910 cells; assay type: in vivo, Nude mice
Description: Nude mice were intracranially implanted with 4910 human glioma xenograft cells (1x10^6 cells). Ten days after implantation mice were treated with AN019, AN024 or temozolomide with or without radiation (5Gy/week). The experiment was terminated at day 40 post implantation.

K562 = assay: ED50 (po) and therapeutic index in leukemic mice (K562)

## Cc1ccc(NC(=O)c2cccc(S(=O)(=O)C(F)(F)F)c2)cc1Nc1nccc(-c2cccnc2)n1 [AN024]
Baf3T315I
  blast cell count in blood smears: significant decrease in blast cell count and was superior to AN019 treatment at day 42
Baf3M351T
  blast cell count in blood smears: significant decrease in blast cell count and was superior to AN019 treatment at day 42
Baf3E255K
  blast cell count in blood smears: significant decrease in blast cell count and was superior to AN019 treatment at day 42
[1]; 5mg/kg
  De (drug effectiveness): 30.00%
[1]; 10mg/kg
  De (drug effectiveness): 85.00%
[1]; 20mg/kg
  De (drug effectiveness): 87.00%
[1]; 40mg/kg
  De (drug effectiveness): 90.00%
K5621uc cells
  Tp (temporal penetrance): 2.4
ZR-71; ZR-71, with radiation
  +Radiation % Invasion: 45%
ZR-71; ZR-71, without radiation
  -Radiation % Invasion: 48%
MDA-MB-231; MDA-MB-231, with radiation
  +Radiation % Invasion: 47%
MDA-MB-231; MDA-MB-231, without radiation
  -Radiation % Invasion: 43%
4910; 4910, with radiation
  +Radiation % Invasion: 39%
4910; 4910, without radiation
  -Radiation % Invasion: 56%
5310; 5310, with radiation
  +Radiation % Invasion: 32%
5310; 5310, without radiation
  -Radiation % Invasion: 27%
U87; U87, with radiation
  +Radiation % Invasion: 29%
U87; U87, without radiation
  -Radiation % Invasion: 53%
ZR-71 cells
  inhibition of angiogenesis: complete inhibition of angiogenesis
MDA-MB-231 cells
  inhibition of angiogenesis: only a slight inhibition was observed in control and radiation treatments
[2]
  inhibition of angiogenesis: significant inhibition of angiogenesis both with and without radiation
5310 cells
  inhibition of angiogenesis: inhibition of angiogenesis was seen in control conditions, whereas angiogenesis further inhibited after radiation treatment
U87 glioma cells
  inhibition of angiogenesis: significant retardation in angiogenesis with an increase in inhibition after radiation
U87 cells
  ERK levels: slight decrease in ERK levels
4910 cells
  AKT levels: decrease in AKT levels
ZR71; ZR71 (cell line by context), with and without radiation
  PI3k levels: decrease in PI3k levels after radiation
ZR71; ZR71, unirradiated and after radiation
  AKT levels: did not show any significant change under unirradiated conditions, whereas after radiation AN024 treated cells showed a decrease in AKT expression
[3]
  levels of pERK: reduction on pERK levels but to a lesser extent than AN019
[4]; drug treatment stopped at day 42, based on luminescence (Fig. 20)
  curative effect after withdrawal of drug treatment (animals cured at day 58): continued to show curative effect
[4]; drug treatment withdrawn on day 42 (Fig. 21)
  Blast cell count from blood smears after withdrawal of drug treatment: showed effectiveness after withdrawal of drug treatment
[4]; treatment from day 15 till day 42, then withdrawn, AN024 death determined to be other than leukemia
  mortality: showed mortality on day 38
[4]; treatment from day 15 till day 42, then withdrawn, AN024 on day 55
  animals showing no signs of leukemia / complete absence of leukemic symptoms: 8 of the 10 animals
[5]; with radiation (5Gy/week), terminated at day 40
  animals cured / no observable intracranial tumor: 7 of 10 animals
[5]; without radiation
  intracranial tumours (size, appearance): showed presence of intracranial tumours but the tumours were well defined and not showing diffuse edges
[5]; without radiation, treatment from ten days after implantation, terminated at day 40
  animals cured / complete absence of intracranial tumours: 3 of 10 animals
K562
  Therapeutic index-LD50/ED50: 144
